{
  "source": "patent US20240059703A1",
  "about": "(AMGEN INC., priority 2021, published 2024)",
  "key": {"[1]": {"system": "MIA PaCa-2 (human pancreatic carcinoma) cells", "assay": "Cell Viability Assay (CellTiter-Glo), MIA PaCa-2", "type": "cell-based", "method": "(§1) Serially-diluted compound or DMSO was added to the cells, and plates were incubated at 37° C., 5% CO2 for 72 h. Cell viability was measured using a CellTiter-Glo® Luminescent Cell Viability Assay kit (Promega) according to the manufacturer's protocol. The luminescence signal of treated samples was normalized to DMSO control, and data were analyzed using a 4-parameter logistic model to calculate IC50 values."}, "[2]": {"system": "A549 (human lung carcinoma) cells", "assay": "Cell Viability Assay (CellTiter-Glo), A549", "type": "cell-based", "method": "as §1, with “MIA PaCa-2 (human pancreatic carcinoma; ATCC CRL-1420) or A549 (human lung carcinoma; ATCC CCL-185) cells were cultured in RPMI 1640 medium containing 10% fetal bovine serum and 1× penicillin/streptomycin/L-glutamine. Cells were seeded in 384-well plates at a density of 1.67E+04 cells/mL and incubated at 37° C., 5% CO2, overnight. Serially-diluted” for “Serially-diluted”"}, "KRAS G12C": {"biological_target": "KRAS G12C (Homo sapiens (Human), UniProt P01116, C118A/G12C)", "assay": "2 h coupled exchange assay", "type": "biochemical", "method": "The term “2 h coupled exchange assay” or “20 h coupled exchange assay” as used herein refers to the assay described in the Section entitled “BIOLOGICAL EVALUATION.”"}, "[3]": {"settings": "Avg 2 h Coupled exchange IC50, 2 h compound pre-incubation"}},
  "note": "Where two headings read alike, the source gives them in different places.",
  "data": [
    {"compound": "7,7-dimethyl-4-(5-methyl-1H-indazol-4-yl)-2-(2-((^2H3)-2-propenoyl)-2,6-diazaspiro[3.4]octan-6-yl)-5,6,7,8-tetrahydro-3-quinolinecarbonitrile [Example 13-1]", "values": [
      {"measurement": "IC50", "setting": "[1]; 72 h", "result": 65, "unit": "nM"},
      {"measurement": "IC50", "setting": "[2]; 72 h", "result": 4.89, "unit": "µM"},
      {"measurement": "IC50", "setting": "KRAS G12C; read-out: Avg 2 h Coupled exchange IC50, 2 h compound pre-incubation, SOS-mediated nucleotide exchange", "result": 36, "unit": "nM"}
    ]},
    {"compound": "C=CC(=O)N1CC2(CCN(c3nc4c(c(-c5c(C)c(C)cc6cnn(C)c56)c3C)[C@@H]3CC[C@H]4C3)C2)C1", "note": "(atropisomer, axis not shown; (M)) [Example 2-111, (M)-1-(6-((1S,8R)-5-methyl-6-(1,5,6-trimethyl-1H-indazol-7-yl)-3-azatricyclo[6.2.1.0^2,7]undeca-2,4,6-trien-4-yl)-2,6-diazaspiro[3.4]octan-2-yl)-2-propen-1-one]", "values": [
      {"measurement": "IC50", "setting": "[1]; Homo sapiens, MIA PaCa-2, 72 h", "result": 210, "unit": "nM"},
      {"measurement": "IC50", "setting": "[2]; Homo sapiens, A549, 72 h", "result": 10.9, "unit": "µM"},
      {"measurement": "IC50", "setting": "KRAS G12C; Avg 2 h Coupled exchange IC50, 2 h compound pre-incubation, SOS-mediated nucleotide exchange", "result": 3, "unit": "nM"}
    ]},
    {"compound": "C=CC(=O)N1CC2(CCN(c3nc4c(c(-c5c(C)c(Cl)cc6cnn(C)c56)c3F)CCN(C3COC3)C4)C2)C1", "note": "(atropisomer, axis not shown; (M)) [Example 14-107, (M)-1-(6-(4-(5-chloro-1,6-dimethyl-1H-indazol-7-yl)-3-fluoro-7-(3-oxetanyl)-5,6,7,8-tetrahydro-1,7-naphthyridin-2-yl)-2,6-diazaspiro[3.4]octan-2-yl)-2-propen-1-one]", "values": [
      {"measurement": "IC50", "setting": "[1]; Homo sapiens, MIA PaCa-2, 72 h", "result": 30, "unit": "nM"},
      {"measurement": "IC50", "setting": "[2]; Homo sapiens, A549, 72 h", "result": 15.3, "unit": "µM"},
      {"measurement": "IC50", "setting": "KRAS G12C; [3]", "result": 13, "unit": "nM"}
    ]},
    {"compound": "C=CC(=O)N1CC2(CCN(c3nc4c(c(-c5ccc(F)cc5Cl)c3C#N)CCC(c3scnc3C)=C4)C2)C1", "note": "(atropisomer, axis not shown; (M)) [Example 23-32, (M)-4-(2-chloro-4-fluorophenyl)-7-(4-methyl-1,3-thiazol-5-yl)-2-(2-(2-propenoyl)-2,6-diazaspiro[3.4]octan-6-yl)-5,6-dihydro-3-quinolinecarbonitrile]", "values": [
      {"measurement": "IC50", "setting": "[1]; 72 h", "result": 1950, "unit": "nM"},
      {"measurement": "IC50", "setting": "[2]; 72 h", "result": 5.5, "unit": "µM"},
      {"measurement": "IC50", "setting": "KRAS G12C; [3]", "result": 282, "unit": "nM"}
    ]},
    {"compound": "C=CC(=O)N1CC2(CCN(c3nc4c(c(-c5c(C)ccc6cnn(C)c56)c3C)CCN(C3(C)COC3)C4)C2)C1", "note": "(atropisomer, axis not shown; (M)) [Example 36-2, (M)-1-(6-(4-(1,6-dimethyl-H-indazol-7-yl)-3-methyl-7-(3-methyl-3-oxetanyl)-5,6,7,8-tetrahydro-1,7-naphthyridin-2-yl)-2,6-diazaspiro[3.4]octan-2-yl)-2-propen-1-one]", "values": [
      {"measurement": "IC50", "setting": "[1]; 72 h", "result": 28, "unit": "nM"},
      {"measurement": "IC50", "setting": "[2]; 72 h", "result": 25, "unit": "µM"},
      {"measurement": "IC50", "setting": "KRAS G12C; read-out: Avg 2 h Coupled exchange IC50, 2 h compound pre-incubation", "result": 87, "unit": "nM"}
    ]},
    {"compound": "C=CC(=O)N1CC2(CCN(c3nc4c(c(-c5cc(O)cc6ccccc56)c3Cl)COC(C)(C)C4)C2)C1", "note": "(single isomer, unassigned) [Example 2-78, (P)-1-(6-(3-chloro-4-(3-hydroxy-1-naphthalenyl)-7,7-dimethyl-7,8-dihydro-5H-pyrano[4,3-b]pyridin-2-yl)-2,6-diazaspiro[3,4]octan-2-yl)-2-propen-1-one]", "values": [
      {"measurement": "IC50", "setting": "[1]; Homo sapiens, MIA PaCa-2, 72 h", "result": 14, "unit": "nM"},
      {"measurement": "IC50", "setting": "[2]; Homo sapiens, A549, 72 h", "result": "> 5", "unit": "µM"}
    ]},
    {"compound": "C=CC(=O)N1CC2(CCN(c3nc4c(c(-c5cc(O)cc6ccccc56)c3F)C[C@H]3C[C@@H]4C3(C)C)C2)C1", "note": "(single isomer, unassigned) [Example 14-77]", "values": [
      {"measurement": "IC50", "setting": "[2]; Homo sapiens, A549, 72 h", "result": "> 5", "unit": "µM"}
    ]},
    {"compound": "C=CC(=O)N1CC2(CCN(c3nc4c(c(-c5cc(O)cc6ccccc56)c3Cl)COC(C)(C)C4)C2)C1", "note": "[Example 2-76, 1-(6-(3-chloro-4-(3-hydroxy-1-naphthalenyl)-7,7-dimethyl-7,8-dihydro-5H-pyrano[4,3-b]pyridin-2-yl)-2,6-diazaspiro[3.4]octan-2-yl)-2-propen-1-one]", "values": [
      {"measurement": "IC50", "setting": "[1]; Homo sapiens, MIA PaCa-2, 72 h", "result": 26, "unit": "nM"},
      {"measurement": "IC50", "setting": "[2]; Homo sapiens, A549, 72 h", "result": "> 5", "unit": "µM"}
    ]},
    {"compound": "C=CC(=O)N1CC2(CCN(c3nc4c(c(-c5cc(O)cc6ccccc56)c3F)C[C@H]3C[C@@H]4C3(C)C)C2)C1", "note": "[Example 14-1, 1-(6-((1R,9R)-5-fluoro-6-(3-hydroxy-1-naphthalenyl)-10,10-dimethyl-3-azatricyclo[7.1.1.0^2,7]undeca-2,4,6-trien-4-yl)-2,6-diazaspiro[3.4]octan-2-yl)-2-propen-1-one]", "values": [
      {"measurement": "IC50", "setting": "[1]; Homo sapiens, MIA PaCa-2, 72 h", "result": 39, "unit": "nM"},
      {"measurement": "IC50", "setting": "[2]; Homo sapiens, A549, 72 h", "result": "> 5", "unit": "µM"}
    ]}
  ]
}
